{"source": "the NIST ThermoML archive (doi:10.1021/acs.jced.9b00348)", "experiment": "molar heat capacity at constant pressure", "settings": "100 kPa, DSC", "note": "± gives the expanded uncertainty stated by the source.", "data": [{"compound": "[F][Th]([F])([F])[F]", "note": "[thorium tetraluoride]", "values": [{"measurement": "molar heat capacity at constant pressure", "setting": "1278 K, Crystal", "result": "145 ± 21", "unit": "J/K/mol"}, {"measurement": "molar heat capacity at constant pressure", "setting": "1478 K, Liquid", "result": "168 ± 21", "unit": "J/K/mol"}]}]}
